{"source": "patent US8546375B2", "about": "“(3-(4-(aminomethyl)phenoxy or phenylthio)azetidin-1-yl)(5-phenyl-1,3,4-oxadiazol-2-yl)methanone compounds” (AstraZeneca AB, priority 2010, dated 2013)", "molecular_target": "T1, Melanin Concentrating Hormone Receptor 1 (MCHR1) (Homo sapiens, UniProt Q99705)", "T1 construct": "expressed in transfected cells", "T1 sequence (Q99705 whole entry)": "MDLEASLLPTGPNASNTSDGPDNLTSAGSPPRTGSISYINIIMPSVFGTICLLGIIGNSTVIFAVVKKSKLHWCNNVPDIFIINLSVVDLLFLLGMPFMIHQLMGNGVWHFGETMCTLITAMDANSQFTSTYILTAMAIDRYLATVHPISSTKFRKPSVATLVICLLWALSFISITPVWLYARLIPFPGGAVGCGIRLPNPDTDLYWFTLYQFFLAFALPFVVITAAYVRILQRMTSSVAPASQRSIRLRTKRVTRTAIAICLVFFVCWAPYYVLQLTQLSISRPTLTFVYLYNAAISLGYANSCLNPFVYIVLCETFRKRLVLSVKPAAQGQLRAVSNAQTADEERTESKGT", "test": "MCHR1 Receptor Activation Assay (GTPγ^35S)", "assay_type": "biochemical", "conditions": "read-out: GTPγ^35S IC50", "note": "pIC50: −log10 of the molar value."}
{"smiles": "CC(=O)N1CCN(Cc2ccc(OC3CN(C(=O)c4nnc(-c5ccc(Cl)cc5)o4)C3)cc2)CC1", "note": "[Example 25, 1-(4-(4-(1-(5-(4-Chlorophenyl)-1,3,4-oxadiazole-2-carbonyl)azetidin-3-yloxy)benzyl)piperazin-1-yl)ethanone]", "values": [{"measurement": "pIC50", "result": 7.47}]}
{"smiles": "CN(C)Cc1ccc(OC2CN(C(=O)c3nnc(-c4ccccc4)o3)C2)cc1F", "note": "[Example 26, (3-(4-((Dimethylamino)methyl)-3-fluorophenoxy)azetidin-1-yl)(5-phenyl-1,3,4-oxadiazol-2-yl)methanone]", "values": [{"measurement": "pIC50", "result": 7.52}]}
{"smiles": "COc1ccc(-c2nnc(C(=O)N3CC(Oc4ccc(CN(C)C)c(F)c4)C3)o2)cc1", "note": "[Example 27, (3-(4-((Dimethylamino)methyl)-3-fluorophenoxy)azetidin-1-yl)(5-(4-methoxyphenyl)-1,3,4-oxadiazol-2-yl)methanone]", "values": [{"measurement": "pIC50", "result": 7.68}]}
{"smiles": "Cc1ccc(-c2nnc(C(=O)N3CC(Oc4ccc(CN(C)C)c(F)c4)C3)o2)cc1", "note": "[Example 28, (3-(4-((Dimethylamino)methyl)-3-fluorophenoxy)azetidin-1-yl)(5-p-tolyl-1,3,4-oxadiazol-2-yl)methanone]", "values": [{"measurement": "pIC50", "result": 7.57}]}
{"smiles": "CN1CCN(Cc2ccc(OC3CN(C(=O)c4nnc(-c5ccccc5)o4)C3)cc2F)CC1", "note": "[Example 29, (3-(3-Fluoro-4-((4-methylpiperazin-1-yl)methyl)phenoxy)azetidin-1-yl)(5-phenyl-1,3,4-oxadiazol-2-yl)methanone]", "values": [{"measurement": "pIC50", "result": 7.07}]}
{"smiles": "O=C(c1nnc(-c2ccccc2)o1)N1CC(Oc2ccc(CN3CCCC3)c(F)c2)C1", "note": "[Example 31, (3-(3-Fluoro-4-(pyrrolidin-1-ylmethyl)phenoxy)azetidin-1-yl)(5-phenyl-1,3,4-oxadiazol-2-yl)methanone]", "values": [{"measurement": "pIC50", "result": 7.70}]}
{"smiles": "COc1ccc(-c2nnc(C(=O)N3CC(Oc4ccc(CN5CCCC5)c(F)c4)C3)o2)cc1", "note": "[Example 32, (3-(3-Fluoro-4-(pyrrolidin-1-ylmethyl)phenoxy)azetidin-1-yl)(5-(4-methoxyphenyl)-1,3,4-oxadiazol-2-yl)methanone]", "values": [{"measurement": "pIC50", "result": 7.82}]}
{"smiles": "CN(C)Cc1ccc(OC2CN(C(=O)c3nnc(-c4ccccc4)o3)C2)cc1", "note": "[Example 33, (3-(4-((Dimethylamino)methyl)phenoxy)azetidin-1-yl)(5-phenyl-1,3,4-oxadiazol-2-yl)methanone]", "values": [{"measurement": "pIC50", "result": 7.47}]}
{"smiles": "CSc1ccc(-c2nnc(C(=O)N3CC(Oc4ccc(CN(C)C)cc4)C3)o2)cc1", "note": "[Example 34, (3-(4-((Dimethylamino)methyl)phenoxy)azetidin-1-yl)(5-(4-(methylthio)phenyl)-1,3,4-oxadiazol-2-yl)methanone]", "values": [{"measurement": "pIC50", "result": 7.74}]}
{"smiles": "CN(C)Cc1ccc(OC2CN(C(=O)c3nnc(-c4ccc(C(F)(F)F)cc4)o3)C2)cc1", "note": "[Example 35, (3-(4-((dimethylamino)methyl)phenoxy)azetidin-1-yl)(5-(4-(trifluoromethyl)phenyl)-1,3,4-oxadiazol-2-yl)methanone]", "values": [{"measurement": "pIC50", "result": 7.72}]}
{"smiles": "CN(C)Cc1ccc(OC2CN(C(=O)c3nnc(-c4ccc(Cl)cc4)o3)C2)cc1", "note": "[Example 36, (5-(4-Chlorophenyl)-1,3,4-oxadiazol-2-yl)(3-(4-((dimethylamino)methyl)phenoxy)azetidin-1-yl)methanone]", "values": [{"measurement": "pIC50", "result": 7.89}]}
{"smiles": "CN(C)Cc1ccc(OC2CN(C(=O)c3nnc(-c4ccc(OC(F)F)cc4)o3)C2)cc1", "note": "[Example 37, (5-(4-(Difluoromethoxy)phenyl)-1,3,4-oxadiazol-2-yl)(3-(4-((dimethylamino)methyl)phenoxy)azetidin-1-yl)methanone]", "values": [{"measurement": "pIC50", "result": 7.77}]}
{"smiles": "COc1ccc(-c2nnc(C(=O)N3CC(Oc4ccc(CN(C)C)cc4)C3)o2)cc1", "note": "[Example 38, (3-(4-((Dimethylamino)methyl)phenoxy)azetidin-1-yl)(5-(4-methoxyphenyl)-1,3,4-oxadiazol-2-yl)methanone]", "values": [{"measurement": "pIC50", "result": 7.57}]}
{"smiles": "CN(C)Cc1ccc(OC2CN(C(=O)c3nnc(-c4ccccc4)o3)C2)c(F)c1F", "note": "[Example 39, (3-(4-((Dimethylamino)methyl)-2,3-difluorophenoxy)azetidin-1-yl)(5-phenyl-1,3,4-oxadiazol-2-yl)methanone]", "values": [{"measurement": "pIC50", "result": 7.31}]}
{"smiles": "COc1ccc(-c2nnc(C(=O)N3CC(Oc4ccc(CN(C)C)c(F)c4F)C3)o2)cc1", "note": "[Example 40, (3-(4-((Dimethylamino)methyl)-2,3-difluorophenoxy)azetidin-1-yl)(5-(4-methoxyphenyl)-1,3,4-oxadiazol-2-yl)methanone]", "values": [{"measurement": "pIC50", "result": 7.57}]}
{"smiles": "COc1ccc(-c2nnc(C(=O)N3CC(Oc4ccc(CN5CCC5)cc4)C3)o2)cc1", "note": "[Example 41, (3-(4-(Azetidin-1-ylmethyl)phenoxy)azetidin-1-yl)(5-(4-methoxyphenyl)-1,3,4-oxadiazol-2-yl)methanone]", "values": [{"measurement": "pIC50", "result": 7.60}]}
{"smiles": "O=C(c1nnc(-c2ccccc2)o1)N1CC(Oc2ccc(CN3CCC3)cc2)C1", "note": "[Example 42, (3-(4-(azetidin-1-ylmethyl)phenoxy)azetidin-1-yl)(5-phenyl-1,3,4-oxadiazol-2-yl)methanone]", "values": [{"measurement": "pIC50", "result": 7.59}]}
{"smiles": "Cc1cc(OC2CN(C(=O)c3nnc(-c4ccc(OC(F)F)cc4)o3)C2)ccc1CN(C)C", "note": "[Example 43, (5-(4-(Difluoromethoxy)phenyl)-1,3,4-oxadiazol-2-yl)(3-(4-((dimethylamino)methyl)-3-methylphenoxy)azetidin-1-yl)methanone]", "values": [{"measurement": "pIC50", "result": 7.96}]}
{"smiles": "Cc1cc(OC2CN(C(=O)c3nnc(-c4ccc(Cl)cc4)o3)C2)ccc1CN(C)C", "note": "[Example 44, (5-(4-Chlorophenyl)-1,3,4-oxadiazol-2-yl)(3-(4-((dimethylamino)methyl)-3-methylphenoxy)azetidin-1-yl)methanone]", "values": [{"measurement": "pIC50", "result": 8.00}]}
{"smiles": "O=C(c1nnc(-c2ccccc2)o1)N1CC(Oc2ccc(CN3CCCC3)c(C(F)(F)F)c2)C1", "note": "[Example 45, (5-Phenyl-1,3,4-oxadiazol-2-yl)(3-(4-(pyrrolidin-1-ylmethyl)-3-(trifluoromethyl)phenoxy)azetidin-1-yl)methanone]", "values": [{"measurement": "pIC50", "result": 7.80}]}
{"smiles": "COc1ccc(-c2nnc(C(=O)N3CC(Oc4ccc(CN5CCCC5)c(C(F)(F)F)c4)C3)o2)cc1", "note": "[Example 46, (5-(4-Methoxyphenyl)-1,3,4-oxadiazol-2-yl)(3-(4-(pyrrolidin-1-ylmethyl)-3-(trifluoromethyl)phenoxy)azetidin-1-yl)methanone]", "values": [{"measurement": "pIC50", "result": 7.74}]}
{"smiles": "COc1ccc(-c2nnc(C(=O)N3CC(Oc4ccc(CN(C)C)c(Cl)c4)C3)o2)cc1", "note": "[Example 47, (3-(3-Chloro-4-((dimethylamino)methyl)phenoxy)azetidin-1-yl)(5-(4-methoxyphenyl)-1,3,4-oxadiazol-2-yl)methanone]", "values": [{"measurement": "pIC50", "result": 7.72}]}
{"smiles": "CN(C)Cc1ccc(OC2CN(C(=O)c3nnc(-c4ccccc4)o3)C2)cc1Cl", "note": "[Example 48, (3-(3-Chloro-4-((dimethylamino)methyl)phenoxy)azetidin-1-yl)(5-phenyl-1,3,4-oxadiazol-2-yl)methanone]", "values": [{"measurement": "pIC50", "result": 7.74}]}
{"smiles": "COc1ccc(-c2nnc(C(=O)N3CC(Oc4ccc(CN5CCN(C)CC5)c(Cl)c4)C3)o2)cc1", "note": "[Example 49, (3-(3-Chloro-4-((4-methylpiperazin-1-yl)methyl)phenoxy)azetidin-1-yl)(5-(4-methoxyphenyl)-1,3,4-oxadiazol-2-yl)methanone]", "values": [{"measurement": "pIC50", "result": 7.43}]}
{"smiles": "CN1CCN(Cc2ccc(OC3CN(C(=O)c4nnc(-c5ccccc5)o4)C3)cc2Cl)CC1", "note": "[Example 50, (3-(3-Chloro-4-((4-methylpiperazin-1-yl)methyl)phenoxy)azetidin-1-yl)(5-phenyl-1,3,4-oxadiazol-2-yl)methanone]", "values": [{"measurement": "pIC50", "result": 7.46}]}
{"smiles": "CN(C)Cc1ccc(OC2CN(C(=O)c3nnc(-c4ccc(OC(F)F)cc4)o3)C2)cc1F", "note": "[Example 51, (5-(4-(Difluoromethoxy)phenyl)-1,3,4-oxadiazol-2-yl)(3-(4-((dimethylamino)methyl)-3-fluorophenoxy)azetidin-1-yl)methanone]", "values": [{"measurement": "pIC50", "result": 7.72}]}
{"smiles": "COc1ccc(-c2nnc(C(=O)N3CC(Oc4ccc(CN5CCCC5)c(OC)c4C)C3)o2)cc1", "note": "[Example 52, (3-(3-Methoxy-2-methyl-4-(pyrrolidin-1-ylmethyl)phenoxy)azetidin-1-yl)(5-(4-methoxyphenyl)-1,3,4-oxadiazol-2-yl)methanone]", "values": [{"measurement": "pIC50", "result": 7.62}]}
{"smiles": "CNCc1ccc(OC2CN(C(=O)c3nnc(-c4ccccc4)o3)C2)cc1C", "note": "[Example 53, (3-(3-Methyl-4-((methylamino)methyl)phenoxy)azetidin-1-yl)(5-phenyl-1,3,4-oxadiazol-2-yl)methanone]", "values": [{"measurement": "pIC50", "result": 7.55}]}
{"smiles": "CNCc1ccc(OC2CN(C(=O)c3nnc(-c4ccc(OC)cc4)o3)C2)c(C)c1", "note": "[Example 54, (5-(4-Methoxyphenyl)-1,3,4-oxadiazol-2-yl)(3-(2-methyl-4-((methylamino)methyl)phenoxy)azetidin-1-yl)methanone]", "values": [{"measurement": "pIC50", "result": 7.51}]}
{"smiles": "COc1ccc(-c2nnc(C(=O)N3CC(Oc4ccc(CN5CC(OC)C5)cc4)C3)o2)cc1", "note": "[Example 55, (3-(4-((3-Methoxyazetidin-1-yl)methyl)phenoxy)azetidin-1-yl)(5-(4-methoxyphenyl)-1,3,4-oxadiazol-2-yl)methanone]", "values": [{"measurement": "pIC50", "result": 7.66}]}
{"smiles": "COc1ccc(-c2nnc(C(=O)N3CC(Oc4ccc(CN5CC(O)(C6CC6)C5)cc4)C3)o2)cc1", "note": "[Example 56, (3-(4-((3-Cyclopropyl-3-hydroxyazetidin-1-yl)methyl)phenoxy)azetidin-1-yl)(5-(4-methoxyphenyl)-1,3,4-oxadiazol-2-yl)methanone]", "values": [{"measurement": "pIC50", "result": 7.89}]}
{"smiles": "COC1CN(Cc2ccc(OC3CN(C(=O)c4nnc(-c5ccccc5)o4)C3)c(Cl)c2)C1", "note": "[Example 57, (3-(2-Chloro-4-((3-methoxyazetidin-1-yl)methyl)phenoxy)azetidin-1-yl)(5-phenyl-1,3,4-oxadiazol-2-yl)methanone]", "values": [{"measurement": "pIC50", "result": 7.74}]}
{"smiles": "O=C(c1nnc(-c2ccccc2)o1)N1CC(Oc2ccc(CN3CC(O)C3)cc2Cl)C1", "note": "[Example 58, (3-(2-Chloro-4-((3-hydroxyazetidin-1-yl)methyl)phenoxy)azetidin-1-yl)(5-phenyl-1,3,4-oxadiazol-2-yl)methanone]", "values": [{"measurement": "pIC50", "result": 7.54}]}
{"smiles": "COc1ccc(-c2nnc(C(=O)N3CC(Sc4ccc(CN5CCCC5)cc4)C3)o2)cc1", "note": "[Example 59, (5-(4-Methoxyphenyl)-1,3,4-oxadiazol-2-yl)(3-(4-(pyrrolidin-1-ylmethyl)phenylthio)azetidin-1-yl)methanone]", "values": [{"measurement": "pIC50", "result": 7.96}]}
{"smiles": "CN(C)Cc1ccc(SC2CN(C(=O)c3nnc(-c4ccccc4)o3)C2)cc1", "note": "[Example 60, (3-(4-((Dimethylamino)methyl)phenylthio)azetidin-1-yl)(5-phenyl-1,3,4-oxadiazol-2-yl)methanone]", "values": [{"measurement": "pIC50", "result": 7.72}]}
